“And” between values parts separate entries of the source, which are not always exact repeats. Equal entries are not always repeated.
What was measured:
[1] = system: kidney tissues of treated or untreated rats; assay: Real-time qRT-PCR of signature amplicons, validation stage, labeled and un-labeled samples (Table 23); conditions: for H31883_DB71_seg13 normalized qRT-PCR result / MUSCYCG1R_DB81_seg19-20 normalized qRT-PCR result / W41270_DB81_seg11 normalized qRT-PCR result: un-labeled sample, one line per animal; for AI045075_DB71_seg6 normalized qRT-PCR expression (Interferon stimulated exonuclease 20 (ISG20) transcript) / H31883_DB71_seg13 normalized qRT-PCR expression (Cyclin-G1 (CCNG1) transcript) / MUSCYCG1R_DB81_seg19-20 normalized qRT-PCR expression / W41270_DB81_seg11 normalized qRT-PCR expression (tumor necrosis factor receptor superfamily, member 12a transcript) / W64472_DB81_seg2 normalized qRT-PCR expression (Interferon stimulated exonuclease 20 (ISG20) transcript) / W83813_DB81_seg27 normalized qRT-PCR expression: un-labeled samples, kidney of individual male/female rats
Source text: New primers were designed for part of the transcripts, and new conditions for several qRT-PCR reactions were used, as described below.
The measurements were normalized in two steps. First—according to the house-keeping-genes normalization factor, and second—each plate was normalized according to ratio of the intensity measurements from samples appearing in it and in the shuffled (normalization) plate (Table 25 provides the plates details and the section “Inter-Plate Normalization” provides details of the normalization process). The normalized values were further scaled by a factor, for ease of viewing.
RT was prepared and qRT-PCR performed and analyzed as described hereinabove. qRT-PCR was performed for the four genes comprising the signature of the discovery stage described in Table 13. Two amplicons were tested for each gene—one representing the wild-type transcript, and another representing an alternative splice variant. Each amplicon was measured using the labeled samples described in Table 9 herein, as well as the un-labeled samples. Samples from both groups (labeled and un-labeled) were tested in seven 96 well plates as described in Table 25. In order to correct possible run to run variations, the following controls were added: 1. several samples were repeated in all 96 wells plates; 2. control shuffled plate was designed which combined samples from all seven test plates.
To account for possible differences of qRT-PCR measurements between the different plates due to experimental artifacts, a normalization plate was planned. This plate, designated hereinabove ‘shuffled plate’, contained samples from all other plates. Real Time PCR was performed on this plate using the primers appropriate for all candidates in tables 26 and 27. For each other plate (plates 1-7 above) and each amplicon, the samples appearing also in the shuffled plate were examined—the ratio between the transcript abundance as measured in the plate to the abundance as measured in the shuffled plate was calculated, outliers were manually removed, and the geometric mean of the left ratios was taken as an additional multiplicative normalization factor for the plate and amplicon.

rat kidney samples = assay: Random-Forest classifiers applied to un-labeled samples of T1, T2, T3 and control (Table 30); conditions: for Average 'Toxic' (%): average of the two classifiers
Description: To validate the optimal signature for classification of renal toxicity of a compound after five days of application a test of the signatory polynucleotide/gene expression in rat kidney samples consisting of tissues from rats exposed to three drug compounds and a single control group was carried out (Teva Pharmaceutical Industries, IL).
The two optimal classifiers (signatures described in Tables 26 and 27) were applied to the qRT-PCR reads of the un-labeled samples and their calls was used to assign a level of toxicity to each group and, eventually, each compound.
The classifiers described in Tables 26 and 27, were used for testing the un-labeled samples. Both classifiers were applied to the measurements of each sample, used the 30% bound from above, and the number of samples pass that bound in each group were summarized.

kidney = assay: Renal histopathology of rats treated with T1, T2, T3; type: in vivo, rat; conditions: rats
Description: Each group consisted of 6 male and 6 female rats. The additional groups consisted of 6 males and 6 female rats treated with control compound for a single day and for five days, as described in Table 24.
T2 “no observed effect level” (NOEL, i.e., the maximal dose at which no toxic effect is visible) is 15 mg/kg.
At autopsy, both kidneys of each animal were removed and each kidney was cross sectioned. Half of each kidney was sent to RNA extraction and analysis.

[2] = Ds1, Day1, oral gavage, female rat kidney
[3] = Ds1, Day1, oral gavage, male rat kidney
[4] = Ds1, Day5, oral gavage, female rat kidney
[5] = Ds1, Day5, oral gavage, male rat kidney
[6] = Ds2, Day1, oral gavage, female rat kidney
[7] = Ds2, Day1, oral gavage, male rat kidney
[8] = Ds2, Day5, oral gavage, female rat kidney
[9] = Ds2, Day5, oral gavage, male rat kidney

C#CCN(C)c1nc2ccc(OC(F)(F)F)cc2s1 [T1]
H31883_DB71_seg13 normalized qRT-PCR result [1, 2]: 0.825 and 0.917 and 1.186 | MUSCYCG1R_DB81_seg19-20 normalized qRT-PCR result [1, 2]: 0.49 and 0.762 and 0.981 | W41270_DB81_seg11 normalized qRT-PCR result [1, 2]: 0.752 and 0.548 and 1.047 | H31883_DB71_seg13 normalized qRT-PCR result [1, 3]: 0.155 and 0.178 and 0.143 and 0.169 and 0.245 | MUSCYCG1R_DB81_seg19-20 normalized qRT-PCR result [1, 3]: 0.574 and 1.13 and 0.805 and 0.4 and 1.416 | W41270_DB81_seg11 normalized qRT-PCR result [1, 3]: 0.778 and 1.501 and 0.981 and 0.439 and 1.502 | H31883_DB71_seg13 normalized qRT-PCR result [1, 4]: 1.511 and 1.328 and 1.593 and 0.893 | MUSCYCG1R_DB81_seg19-20 normalized qRT-PCR result [1, 4]: 1.162 and 1.367 and 1.089 and 0.831 | W41270_DB81_seg11 normalized qRT-PCR result [1, 4]: 0.745 and 0.945 and 0.938 and 0.606 | H31883_DB71_seg13 normalized qRT-PCR result [1, 5]: 0.125 and 0.208 and 0.165 and 0.207 and 0.2 and 0.323 | MUSCYCG1R_DB81_seg19-20 normalized qRT-PCR result [1, 5]: 2.031 and 0.904 and 0.937 and 0.783 and 1.364 and 0.717 | W41270_DB81_seg11 normalized qRT-PCR result [1, 5]: 1.835 and 0.991 and 0.687 and 0.902 and 1.35 and 0.684 | H31883_DB71_seg13 normalized qRT-PCR result [1, 6]: 0.861 and 0.549 and 0.725 and 1.045 | MUSCYCG1R_DB81_seg19-20 normalized qRT-PCR result [1, 6]: 1.067 and 0.514 and 0.639 and 0.965 | W41270_DB81_seg11 normalized qRT-PCR result [1, 6]: 0.898 and 0.415 and 0.502 and 1.028 | H31883_DB71_seg13 normalized qRT-PCR result [1, 7]: 0.889 and 0.656 and 0.473 | MUSCYCG1R_DB81_seg19-20 normalized qRT-PCR result [1, 7]: 0.932 and 0.544 and 0.541 | W41270_DB81_seg11 normalized qRT-PCR result [1, 7]: 1.326 and 0.785 and 0.592 | H31883_DB71_seg13 normalized qRT-PCR result [1, 8]: 1.025 and 0.454 and 1.074 and 1.674 | MUSCYCG1R_DB81_seg19-20 normalized qRT-PCR result [1, 8]: 0.935 and 1.478 and 0.868 and 1.487 | W41270_DB81_seg11 normalized qRT-PCR result [1, 8]: 0.989 and 1.223 and 0.652 and 1.056 | H31883_DB71_seg13 normalized qRT-PCR result [1, 9]: 0.654 and 1.077 and 1.236 and 0.596 | MUSCYCG1R_DB81_seg19-20 normalized qRT-PCR result [1, 9]: 0.539 and 1.161 and 1.793 and 0.73 | W41270_DB81_seg11 normalized qRT-PCR result [1, 9]: 0.527 and 1.181 and 2.203 and 0.784 | AI045075_DB71_seg6 normalized qRT-PCR expression (Interferon stimulated exonuclease 20 (ISG20) transcript) ([1]; dose Ds1, Day1, oral gavage): 0.843 and 0.636 and 0.572 | H31883_DB71_seg13 normalized qRT-PCR expression (Cyclin-G1 (CCNG1) transcript) ([1]; dose Ds1, Day1, oral gavage): 0.913 and 0.757 and 0.615 and 0.73 and 0.524 and 0.783 and 0.912 and 0.87 and 0.957 and 0.923 and 0.706 | MUSCYCG1R_DB81_seg19-20 normalized qRT-PCR expression ([1]; dose Ds1, Day1, oral gavage): 1.49 and 0.291 and 0.271 and 0.376 and 0.135 and 1.436 and 1.195 and 0.249 and 1.891 and 0.299 and 2.31 | W41270_DB81_seg11 normalized qRT-PCR expression (tumor necrosis factor receptor superfamily, member 12a transcript) ([1]; dose Ds1, Day1, oral gavage): 0.66 and 0.181 and 0.396 and 0.198 and 0.231 and 0.758 and 0.646 and 0.47 and 1.082 and 0.734 and 0.566 | W64472_DB81_seg2 normalized qRT-PCR expression (Interferon stimulated exonuclease 20 (ISG20) transcript) ([1]; dose Ds1, Day1, oral gavage): 1.118 and 0.683 and 0.49 | W83813_DB81_seg27 normalized qRT-PCR expression ([1]; dose Ds1, Day1, oral gavage): 0.216 and 0.843 and 0.926 | AI045075_DB71_seg6 normalized qRT-PCR expression (Interferon stimulated exonuclease 20 (ISG20) transcript) ([1]; dose Ds1, Day5, oral gavage): 0.692 and 0.627 | H31883_DB71_seg13 normalized qRT-PCR expression (Cyclin-G1 (CCNG1) transcript) ([1]; dose Ds1, Day5, oral gavage): 1.373 and 1.353 and 1.266 and 1.783 and 1.477 and 1.097 and 2.104 and 1.249 and 1.458 and 1.23 and 1.01 and 1.013 | MUSCYCG1R_DB81_seg19-20 normalized qRT-PCR expression ([1]; dose Ds1, Day5, oral gavage): 1.598 and 0.183 and 0.149 and 0.214 and 3.532 and 0.296 and 3.397 and 0.186 and 1.317 and 0.189 and 0.816 and 1.499 | W41270_DB81_seg11 normalized qRT-PCR expression (tumor necrosis factor receptor superfamily, member 12a transcript) ([1]; dose Ds1, Day5, oral gavage): 1.527 and 0.473 and 0.702 and 0.356 and 1.325 and 0.657 (2×) and 1.014 and 1.11 and 1.337 and 0.638 and 0.703 | W64472_DB81_seg2 normalized qRT-PCR expression (Interferon stimulated exonuclease 20 (ISG20) transcript) ([1]; dose Ds1, Day5, oral gavage): 0.571 and 0.528 | W83813_DB81_seg27 normalized qRT-PCR expression ([1]; dose Ds1, Day5, oral gavage): 0.795 and 0.885 | AI045075_DB71_seg6 normalized qRT-PCR expression (Interferon stimulated exonuclease 20 (ISG20) transcript) ([1]; dose Ds2, Day1, oral gavage): 0.483 and 0.759 and 0.448 and 0.547 and 0.396 | H31883_DB71_seg13 normalized qRT-PCR expression (Cyclin-G1 (CCNG1) transcript) ([1]; dose Ds2, Day1, oral gavage): 0.517 (2×) and 0.906 and 0.849 and 0.696 and 0.611 and 0.707 and 0.867 and 1.153 and 1.19 and 0.623 and 0.798 | MUSCYCG1R_DB81_seg19-20 normalized qRT-PCR expression ([1]; dose Ds2, Day1, oral gavage): 0.385 and 0.76 and 0.739 and 0.478 and 0.738 and 0.652 and 0.654 and 1.261 and 0.609 and 0.835 and 0.696 and 0.804 | W41270_DB81_seg11 normalized qRT-PCR expression (tumor necrosis factor receptor superfamily, member 12a transcript) ([1]; dose Ds2, Day1, oral gavage): 0.78 and 0.755 and 0.885 and 0.462 and 0.413 and 0.762 and 0.644 and 1.034 and 1.265 and 0.653 and 0.383 and 0.472 | W64472_DB81_seg2 normalized qRT-PCR expression (Interferon stimulated exonuclease 20 (ISG20) transcript) ([1]; dose Ds2, Day1, oral gavage): 0.944 and 1.213 and 0.661 and 0.559 and 0.462 | W83813_DB81_seg27 normalized qRT-PCR expression ([1]; dose Ds2, Day1, oral gavage): 1.186 and 0.984 and 0.34 and 0.689 and 0.56 | AI045075_DB71_seg6 normalized qRT-PCR expression (Interferon stimulated exonuclease 20 (ISG20) transcript) ([1]; dose Ds2, Day5, oral gavage): 0.797 and 0.766 and 1.01 and 0.629 | H31883_DB71_seg13 normalized qRT-PCR expression (Cyclin-G1 (CCNG1) transcript) ([1]; dose Ds2, Day5, oral gavage): 1.36 and 1.037 and 1.84 and 1.348 and 2.423 and 1.13 and 2.468 and 1.684 and 1.672 and 1.663 and 1.554 and 0.996 | MUSCYCG1R_DB81_seg19-20 normalized qRT-PCR expression ([1]; dose Ds2, Day5, oral gavage): 0.359 and 0.871 and 0.852 and 0.761 and 1.197 and 0.631 and 1.238 and 0.528 and 1.583 and 1.018 and 0.919 and 0.756 | W41270_DB81_seg11 normalized qRT-PCR expression (tumor necrosis factor receptor superfamily, member 12a transcript) ([1]; dose Ds2, Day5, oral gavage): 0.009 and 0.391 and 0.964 and 0.713 and 1.825 and 0.453 and 1.254 and 1.111 and 1.126 and 1.164 and 1 and 0.71 | W64472_DB81_seg2 normalized qRT-PCR expression (Interferon stimulated exonuclease 20 (ISG20) transcript) ([1]; dose Ds2, Day5, oral gavage): 0.803 and 0.863 and 0.982 and 0.554 | W83813_DB81_seg27 normalized qRT-PCR expression ([1]; dose Ds2, Day5, oral gavage): 1.092 and 1.125 and 0.885 and 0.55 | Average 'Toxic' (%) (rat kidney samples; Ds1 Day1 Female): 0% | Average 'Toxic' (%) (rat kidney samples; Ds1 Day1 Male): 17% | Average 'Toxic' (%) (rat kidney samples; Ds1 Day5 Female): 50% | Average 'Toxic' (%) (rat kidney samples; Ds1 Day5 Male): 50% | Average 'Toxic' (%) (rat kidney samples; Ds2 Day1 Female): 0% | Average 'Toxic' (%) (rat kidney samples; Ds2 Day1 Male): 0% | Average 'Toxic' (%) (rat kidney samples; Ds2 Day5 Female): 66.5% | Average 'Toxic' (%) (rat kidney samples; Ds2 Day5 Male): 33% | Toxicity conclusion from classifier calls (rat kidney samples; signatures of Tables 26 and 27, 30% bound): nephrotoxic agents | Time after which visible pathological damage was seen (kidney): 28 days | Renal damage (kidney; dose and duration as in the value): renal damage, mainly in females, after 28 days of treatment at the 30 mg/kg dose
